Test results: US11505526B2, “Aryl-piperidine derivatives” (Artax Biopharma Inc., priority 2017, dated 2022)
Like-named read-outs stand apart in the source and are kept apart here.

Tests used:
CYP1A2 = CYP1A2 (Homo sapiens (Human), UniProt P05177); assay: CYP inhibition, CYP1A2; assay type: in vitro ADME; settings: microsomes, metabolite acetaminophen
Method: (§1) For each isozyme, microsomes-buffer-substrate mixture (MBS mix) is prepared by premixing appropriate volumes of buffer, microsomes and substrate. MBS mixture (179 μL) is transferred to a 96-well reaction plate. An aliquot (1 μL) is spiked from corresponding wells of Test Item stock solution plate to reaction plate. The reaction plate is pre-incubated for 5 minutes at 37° C. Reaction is initiated by the addition of 20 μL of NADPH solution. Each experiment is performed in duplicate. Reaction plate is incubated for predetermined time at 37° C. and quenched using either 200 μL of acetonitrile (for CYP2C9, CYP2D6, CYP2C19 and CYP3A4) or 200 μL of a mixture of 70:30 1% formic acid:acetonitrile (for CYP1A2).

[1] = Microsomal stability, human liver microsomes; assay type: in vitro ADME; settings: 0.5 mg/mL protein, read-out: Microsomal stability (T1/2 min) Human
Method: (§2) Intrinsic clearance studies are performed individually with mouse, rat and human liver microsomes at 0.5 mg/mL protein concentration. Briefly, for protein concentration 0.5 mg/mL assay, liver microsomal protein (12.5 uL), NAPDH (50 uL) and phosphate buffer (435 uL) are co-incubated (pre-incubation) in a 96-well deep well plate in an orbital incubator (10 min, 37° C.). Reactions are initiated by the addition of 2.5 uL of test item working stock solution (100 uM). Aliquots (50 uL) are withdrawn from the reaction tube at 0, 5, 10, 20 and 30 minutes and the reaction is immediately terminated by transferring to a 96 deep well plate containing 50 uL of acetonitrile. Verapamil is used as a positive control in mouse, rat and human liver microsomes. To the quenched samples internal standard is added and vortex mixed followed by centrifugation at 4000 rpm for 10 minutes and an aliquot of supernatant is taken for LC-MS/MS analysis. Samples are analyzed by a suitable fit-for-purpose multiple reaction monitoring method developed on LC-MS/MS using and API 4000 mass spectrometer to estimate the area ratio (analyte peak area/internal standard peak area).

hERG (IKr current) = hERG (IKr current) (Homo sapiens (Human), UniProt Q12809); assay: hERG inhibition, patch clamp (Port-a-Patch) on HEK cells stably transfected with the hERG clone, IKr current; assay type: cell-based; settings: human, HEK cells stably transfected with the hERG clone, pH 7.4, IKr current
hERG (IKr current), sequence (Q12809 whole entry): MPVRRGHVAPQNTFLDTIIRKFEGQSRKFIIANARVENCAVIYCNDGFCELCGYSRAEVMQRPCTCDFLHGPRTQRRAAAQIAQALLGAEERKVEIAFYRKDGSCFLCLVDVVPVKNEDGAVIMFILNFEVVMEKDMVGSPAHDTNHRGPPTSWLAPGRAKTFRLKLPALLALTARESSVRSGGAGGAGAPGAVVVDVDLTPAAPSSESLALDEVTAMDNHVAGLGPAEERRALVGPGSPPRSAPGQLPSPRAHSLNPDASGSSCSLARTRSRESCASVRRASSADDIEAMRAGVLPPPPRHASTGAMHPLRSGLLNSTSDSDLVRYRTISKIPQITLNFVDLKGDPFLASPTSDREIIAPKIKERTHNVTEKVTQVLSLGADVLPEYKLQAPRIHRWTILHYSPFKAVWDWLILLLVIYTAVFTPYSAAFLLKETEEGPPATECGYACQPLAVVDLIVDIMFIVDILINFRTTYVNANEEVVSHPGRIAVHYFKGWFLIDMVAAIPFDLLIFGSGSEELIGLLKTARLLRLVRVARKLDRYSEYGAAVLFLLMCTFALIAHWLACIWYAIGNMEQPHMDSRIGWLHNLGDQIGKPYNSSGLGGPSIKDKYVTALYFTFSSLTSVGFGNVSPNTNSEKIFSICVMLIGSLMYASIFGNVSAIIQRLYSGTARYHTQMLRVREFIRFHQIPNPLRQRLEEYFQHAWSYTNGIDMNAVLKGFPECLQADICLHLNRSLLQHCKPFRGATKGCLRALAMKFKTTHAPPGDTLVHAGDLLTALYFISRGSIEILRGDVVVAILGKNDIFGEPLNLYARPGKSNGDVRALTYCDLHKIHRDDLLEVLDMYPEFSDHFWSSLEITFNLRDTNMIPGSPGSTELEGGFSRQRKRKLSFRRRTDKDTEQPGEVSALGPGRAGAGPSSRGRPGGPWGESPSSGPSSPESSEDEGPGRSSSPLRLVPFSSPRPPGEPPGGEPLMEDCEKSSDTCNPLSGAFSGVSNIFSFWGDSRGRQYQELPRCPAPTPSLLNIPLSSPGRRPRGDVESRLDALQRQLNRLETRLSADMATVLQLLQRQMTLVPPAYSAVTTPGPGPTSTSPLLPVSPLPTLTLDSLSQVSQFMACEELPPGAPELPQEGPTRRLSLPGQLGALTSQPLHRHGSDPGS
Method: (§3) HEK cells stably transfected with the hERG clone are maintained at 37±2° C. in a 5% CO2 incubator. The cells are initially revived and grown in DMEM/F12+GlutaMAX-I medium supplemented with 9% fetal bovine serum (FBS) and antibiotics (Penicillin 100 IU/mL Streptomycin 100 μg/mL) (complete medium). Furthermore, the cells are continuously maintained and passaged in complete media in addition to the appropriate concentration of selection antibiotic (Geneticin (G418) 200 μg/mL) (Selection media). The cells are sub cultured every 2-3 days and medium is changed with complete medium at least a day before the experiment.
(§4) The cells are harvested on the day of experiment, dislodged and suspended in sterile filtered external solution (NaCl 140 mM, KCl 4 mM, MgCl2 1 mM, CaCl2 2 mM, D-Glucose monohydrate 5 mM, Hepes/NaOH 10 mM, pH 7.4, Osmolarity:298+/−5 mOsmol).
(§5) The NPC®-1 chip of the Port-a-Patch® is filled with 5 μL of internal solution (KCl 50 mM, NaCl 10 mM, KFl 60 mM, EGTA 20 mM, Hepes/KOH 10 mM, pH 7.2, Osmolarity: 285+/−5 mOsmol) and it is screwed onto the chip holder. The Faraday cage is then fixed on the chip holder, such that the external electrode is placed near to the chip aperture. 5 μL of external solution is added to the center of the aperture so that the external electrode is also in contact with the solution.
(§6) The experiment is be initiated. […] The suction automatically attracts a cell to the aperture, resulting in an increase in the chip resistance. When the cell is captured and the set threshold for the resistance is reached, the software recognizes this increase in resistance and proceeds to the next step of the sealing procedure. 20 μL of seal enhancer solution (NaCl 80 mM, KCl 4 mM, MgCl2 10 mM, CaCl2) 35 mM, Hepes (Na+salt)/HCl pH 7.4, Osmolarity: 298+/−5 mOsmol) is added 2-3 times. When the threshold resistance is reached, Patch Control automatically moves to the step of improving the seal. When the desirable resistance (Rpip) is reached, whole cell mode is attained and maintained.
(§7) Finally, hERG protocol is selected to run the experiment. The seal enhancer solution is replaced with 20 μL external solution after 2-4 rinses and then the test item is added (from lower to higher concentration) and checked for current inhibition. All the experiments are performed at ambient temperature (22-25° C.).
(§8) A schematic diagram (FIG. 3) of the Pulse protocol: Cells are stimulated every 10 seconds using the following protocol. The holding potential, sweep intervals and the depolarization/repolarization potentials are furnished in the table below.
(§9) Once the stable current is attained (at least 2-5 minutes) vehicle control is added and the current measured till the stable current is achieved. 3-5 consecutive data points from the last stable current phase are considered for further analysis. […] The system performs on-line analysis for several parameters which include functions that acquire data from traces and functions that perform calculations on the results of other functions.

hERG = hERG (Homo sapiens (Human), UniProt Q12809); assay: as above; assay type: cell-based; settings: concentrations tested 1, 3, 10 and 30 μM
hERG, sequence (Q12809 whole entry): as above
Method: as §3, §4, §5, §6, §7, §8, §9

CYP2C9 = CYP2C9 (Homo sapiens (Human), UniProt P11712); assay: CYP inhibition, CYP2C9; assay type: in vitro ADME; settings: microsomes, metabolite 4-hydroxy diclofenac
CYP2C9, sequence (P11712 whole entry): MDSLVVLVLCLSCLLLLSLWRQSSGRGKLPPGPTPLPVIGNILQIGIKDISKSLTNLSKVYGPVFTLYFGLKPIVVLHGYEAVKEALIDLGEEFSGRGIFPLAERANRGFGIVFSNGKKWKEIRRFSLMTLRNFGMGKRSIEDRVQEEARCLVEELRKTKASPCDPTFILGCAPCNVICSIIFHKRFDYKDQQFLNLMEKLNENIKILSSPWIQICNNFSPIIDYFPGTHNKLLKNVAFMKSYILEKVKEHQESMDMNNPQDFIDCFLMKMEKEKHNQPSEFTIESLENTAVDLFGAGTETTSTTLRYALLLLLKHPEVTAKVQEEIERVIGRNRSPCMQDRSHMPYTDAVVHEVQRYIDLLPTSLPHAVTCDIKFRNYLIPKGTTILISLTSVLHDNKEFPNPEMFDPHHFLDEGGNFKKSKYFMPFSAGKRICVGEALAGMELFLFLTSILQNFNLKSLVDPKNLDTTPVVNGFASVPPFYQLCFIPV
Method: as §1

CYP2C19 = CYP2C19 (Homo sapiens (Human), UniProt P33261); assay: CYP inhibition, CYP2C19; assay type: in vitro ADME; settings: microsomes, metabolite 4′-hydroxy mephenytoin
CYP2C19, sequence (P33261 whole entry): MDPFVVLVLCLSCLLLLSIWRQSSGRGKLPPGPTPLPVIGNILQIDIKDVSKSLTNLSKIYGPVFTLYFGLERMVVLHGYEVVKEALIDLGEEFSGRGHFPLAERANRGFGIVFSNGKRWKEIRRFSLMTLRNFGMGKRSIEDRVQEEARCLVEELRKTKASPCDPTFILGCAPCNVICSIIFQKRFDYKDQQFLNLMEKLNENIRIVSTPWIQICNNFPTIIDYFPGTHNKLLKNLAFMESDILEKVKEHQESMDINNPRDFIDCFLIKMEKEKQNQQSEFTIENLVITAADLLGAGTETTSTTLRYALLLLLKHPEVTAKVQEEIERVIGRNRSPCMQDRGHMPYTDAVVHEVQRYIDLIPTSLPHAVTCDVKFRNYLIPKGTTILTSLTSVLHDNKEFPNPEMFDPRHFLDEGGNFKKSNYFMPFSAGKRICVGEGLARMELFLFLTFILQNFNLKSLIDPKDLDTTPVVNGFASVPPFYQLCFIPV
Method: as §1

CYP2D6 = CYP2D6 (Homo sapiens (Human), UniProt P10635); assay: CYP inhibition, CYP2D6; assay type: in vitro ADME; settings: microsomes, metabolite dextrorphan
CYP2D6, sequence (P10635 whole entry): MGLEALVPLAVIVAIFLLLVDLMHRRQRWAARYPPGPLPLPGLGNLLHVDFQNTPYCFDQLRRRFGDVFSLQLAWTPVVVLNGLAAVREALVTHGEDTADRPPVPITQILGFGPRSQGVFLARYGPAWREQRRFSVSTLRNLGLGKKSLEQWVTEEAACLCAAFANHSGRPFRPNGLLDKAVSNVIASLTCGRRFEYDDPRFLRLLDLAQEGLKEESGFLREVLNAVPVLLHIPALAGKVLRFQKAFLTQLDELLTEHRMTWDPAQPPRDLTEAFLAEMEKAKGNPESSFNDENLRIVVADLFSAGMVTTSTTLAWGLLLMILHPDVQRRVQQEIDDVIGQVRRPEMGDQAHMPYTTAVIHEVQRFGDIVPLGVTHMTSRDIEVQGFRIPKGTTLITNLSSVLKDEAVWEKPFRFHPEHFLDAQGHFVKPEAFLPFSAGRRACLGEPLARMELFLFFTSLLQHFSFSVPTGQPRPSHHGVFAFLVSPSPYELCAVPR
Method: as §1

CYP3A4 = CYP3A4 (Homo sapiens (Human), UniProt P08684); assay: CYP inhibition, CYP3A4; assay type: in vitro ADME; settings: footnote not given, CYP3A4 metabolites monitored: 1-hydroxy midazolam, 6-β-hydroxy testosterone
CYP3A4, sequence (P08684 whole entry): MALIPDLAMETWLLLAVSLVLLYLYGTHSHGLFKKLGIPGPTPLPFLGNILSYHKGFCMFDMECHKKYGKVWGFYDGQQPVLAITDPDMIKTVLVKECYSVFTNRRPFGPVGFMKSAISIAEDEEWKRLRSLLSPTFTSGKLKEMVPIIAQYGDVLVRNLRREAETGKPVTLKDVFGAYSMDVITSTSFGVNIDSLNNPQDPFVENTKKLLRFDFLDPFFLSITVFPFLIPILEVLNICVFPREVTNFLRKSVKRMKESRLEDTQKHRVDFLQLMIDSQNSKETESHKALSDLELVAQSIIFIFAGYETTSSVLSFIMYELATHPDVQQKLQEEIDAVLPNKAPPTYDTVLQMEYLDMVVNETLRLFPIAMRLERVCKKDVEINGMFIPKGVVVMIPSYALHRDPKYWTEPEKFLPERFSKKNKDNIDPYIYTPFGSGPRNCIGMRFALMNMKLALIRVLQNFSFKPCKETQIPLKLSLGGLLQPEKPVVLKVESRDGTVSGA
Method: as §1

[2] = Microsomal stability, mouse liver microsomes; assay type: in vitro ADME; settings: 0.5 mg/mL protein, read-out: Microsomal stability (T1/2 min) Mouse
Method: as §2

[3] = Microsomal stability, rat liver microsomes; assay type: in vitro ADME; settings: 0.5 mg/mL protein, read-out: Microsomal stability (T1/2 min) Rat
Method: as §2

[4] = read-out: Percent Inhibition Mean (%)
[5] = read-out: Percent Inhibition Trial I
[6] = read-out: Percent Inhibition Trial II
[7] = CYP3A4^a, read-out: CYP IC50 uM CYP3A4^a

CYP1A2, sequence (P05177 whole entry): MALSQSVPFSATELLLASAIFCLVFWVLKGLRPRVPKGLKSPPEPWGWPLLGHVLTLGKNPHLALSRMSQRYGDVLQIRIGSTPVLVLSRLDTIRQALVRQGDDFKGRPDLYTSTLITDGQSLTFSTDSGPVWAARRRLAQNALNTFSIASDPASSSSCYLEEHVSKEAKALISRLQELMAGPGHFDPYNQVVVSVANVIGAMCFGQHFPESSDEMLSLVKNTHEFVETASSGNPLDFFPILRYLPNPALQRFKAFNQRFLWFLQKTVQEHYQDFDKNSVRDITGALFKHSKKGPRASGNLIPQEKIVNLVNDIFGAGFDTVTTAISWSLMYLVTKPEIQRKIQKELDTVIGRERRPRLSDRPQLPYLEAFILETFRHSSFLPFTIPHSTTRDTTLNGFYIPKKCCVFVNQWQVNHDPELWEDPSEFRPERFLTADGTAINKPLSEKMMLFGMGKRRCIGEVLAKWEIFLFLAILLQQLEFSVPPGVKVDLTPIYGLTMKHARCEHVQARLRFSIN

| Compound | IC50 (CYP1A2) [µM] | half-life at 0.5 µM [1] [min] | inhibition at 1 µM (hERG (IKr current); [4]) [%] | inhibition at 1 µM (hERG (IKr current); [5]) [%] | inhibition at 1 µM (hERG (IKr current); [6]) [%] | inhibition at 3 µM (hERG (IKr current); [4]) [%] | inhibition at 3 µM (hERG (IKr current); [5]) [%] | inhibition at 3 µM (hERG (IKr current); [6]) [%] | inhibition at 10 µM (hERG (IKr current); [4]) [%] | inhibition at 10 µM (hERG (IKr current); [5]) [%] | inhibition at 10 µM (hERG (IKr current); [6]) [%] | inhibition at 30 µM (hERG (IKr current); [4]) [%] | inhibition at 30 µM (hERG (IKr current); [5]) [%] | inhibition at 30 µM (hERG (IKr current); [6]) [%] | IC50 (hERG) [µM] | IC50 (CYP2C9) [µM] | IC50 (CYP2C19) [µM] | IC50 (CYP2D6) [µM] | IC50 (CYP3A4; [7]) [µM] | IC50 (CYP3A4; read-out: CYP IC50 uM CYP3A4^b) [µM] | also measured |
| --- | --- | --- | --- | --- | --- | --- | --- | --- | --- | --- | --- | --- | --- | --- | --- | --- | --- | --- | --- | --- | --- |
| O=C(c1ccc(Cl)cc1)C1CCCN(C(=O)c2ccccc2)C1 (stereo not drawn) [Compound V-4] | ≤ 5 | 10 to 30 | 13.2 | 16.2 | 10.2 | 18.8 | 20.5 | 17 | 23.1 | 26.4 | 19.8 | 39.1 | 39.5 | 38.7 | 76 | 5 to 20 | ≤ 5 | ≤ 5 | > 50 | 20 to 50 | half-life at 0.5 µM [2]: < 10 min; half-life at 0.5 µM [3]: < 10 min |
| O=C(c1ncccn1)C1CCCN(Cc2ccccc2)C1 (stereo not drawn) [IV-7] | > 50 | ≥ 30 | 0 | 0 | 0 | 0.73 | 1.46 | 0 | 1.99 | 3.44 | 0.54 | 21.6 | 17.2 | 25.9 | 73.2 | > 50 | > 50 | 5 to 20 | > 50 | > 50 | half-life at 0.5 µM [2]: ≥ 30 min; half-life at 0.5 µM [3]: 10 to 30 min |
| O=C(c1ccncc1)C1CCCN(Cc2ccccc2)C1 (stereo not drawn) [IV-6] | 20 to 50 | 10 to 30 | 2.37 | 0 | 4.74 | 0 | 0 | 0 | 10.2 | 7.16 | 13.1 | 35.5 | 39.9 | 31.1 | 44.6 | 5 to 20 | ≤ 5 | ≤ 5 | ≤ 5 | 5 to 20 | half-life at 0.5 µM [2]: < 10 min; half-life at 0.5 µM [3]: < 10 min |
